The target of data set [1] is T1, Tyrosine-protein kinase ZAP-70 (Homo sapiens, UniProt P43403).
T1 sequence (P43403 whole entry): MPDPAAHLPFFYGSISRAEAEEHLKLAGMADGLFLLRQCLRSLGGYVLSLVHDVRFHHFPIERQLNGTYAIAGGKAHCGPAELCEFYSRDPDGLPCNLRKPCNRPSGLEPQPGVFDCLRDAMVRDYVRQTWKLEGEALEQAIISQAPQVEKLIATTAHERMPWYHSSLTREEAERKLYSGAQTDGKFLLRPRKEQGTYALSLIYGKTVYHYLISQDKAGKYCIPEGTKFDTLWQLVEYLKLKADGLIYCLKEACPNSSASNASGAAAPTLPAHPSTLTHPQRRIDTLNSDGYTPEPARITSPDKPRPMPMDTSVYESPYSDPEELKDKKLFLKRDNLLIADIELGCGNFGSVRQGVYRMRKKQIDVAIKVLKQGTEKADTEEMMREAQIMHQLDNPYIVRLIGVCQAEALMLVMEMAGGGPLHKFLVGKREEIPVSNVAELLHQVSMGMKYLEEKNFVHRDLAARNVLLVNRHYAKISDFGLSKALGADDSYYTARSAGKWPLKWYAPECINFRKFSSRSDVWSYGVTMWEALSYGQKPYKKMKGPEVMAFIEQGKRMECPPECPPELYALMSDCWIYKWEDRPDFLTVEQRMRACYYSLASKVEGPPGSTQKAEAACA
The experiment in a line: Inhibition of purified full-length human ZAP70 pre-incubated for 30 mins at room temperature before UlighTM-PolyGT peptide substrate addition and measured 1 hr after substrate addition by cell free kinase assay.

Data set [2] concerns the target T2, Tyrosine-protein kinase JAK3 (Homo sapiens, UniProt P52333).
T2 sequence (P52333 whole entry): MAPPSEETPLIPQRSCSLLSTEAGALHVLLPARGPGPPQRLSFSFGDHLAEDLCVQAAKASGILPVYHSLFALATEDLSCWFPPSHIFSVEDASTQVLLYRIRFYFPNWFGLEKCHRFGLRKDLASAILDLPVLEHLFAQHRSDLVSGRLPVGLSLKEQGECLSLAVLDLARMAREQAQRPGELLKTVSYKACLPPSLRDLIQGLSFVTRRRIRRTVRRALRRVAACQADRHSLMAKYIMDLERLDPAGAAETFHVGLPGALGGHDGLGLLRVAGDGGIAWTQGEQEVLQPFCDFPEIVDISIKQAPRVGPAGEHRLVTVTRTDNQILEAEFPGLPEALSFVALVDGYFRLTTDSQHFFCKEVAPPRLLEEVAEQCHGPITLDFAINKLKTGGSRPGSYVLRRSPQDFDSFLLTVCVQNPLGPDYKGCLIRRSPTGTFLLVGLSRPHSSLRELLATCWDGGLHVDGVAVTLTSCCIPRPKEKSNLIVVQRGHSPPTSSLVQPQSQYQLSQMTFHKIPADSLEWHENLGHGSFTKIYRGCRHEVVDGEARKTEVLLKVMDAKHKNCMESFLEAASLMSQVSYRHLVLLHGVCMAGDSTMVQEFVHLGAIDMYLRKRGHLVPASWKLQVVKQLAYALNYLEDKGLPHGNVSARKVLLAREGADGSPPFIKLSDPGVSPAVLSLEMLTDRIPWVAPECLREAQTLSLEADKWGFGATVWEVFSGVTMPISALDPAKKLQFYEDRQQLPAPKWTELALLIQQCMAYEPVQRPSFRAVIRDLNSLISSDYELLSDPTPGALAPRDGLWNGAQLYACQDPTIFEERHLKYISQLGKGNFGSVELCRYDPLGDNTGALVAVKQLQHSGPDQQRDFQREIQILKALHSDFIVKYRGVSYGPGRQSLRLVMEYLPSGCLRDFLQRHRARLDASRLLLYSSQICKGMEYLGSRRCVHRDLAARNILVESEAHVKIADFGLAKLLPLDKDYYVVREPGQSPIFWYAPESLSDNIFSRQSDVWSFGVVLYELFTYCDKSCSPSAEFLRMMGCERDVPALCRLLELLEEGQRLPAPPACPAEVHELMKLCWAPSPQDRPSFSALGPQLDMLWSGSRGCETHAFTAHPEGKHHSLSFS
The experiment in a line: Inhibition of JAK3 (unknown origin) pre-incubated for 30 mins at room temperature before substrate addition and measured 1 hr after substrate addition by cell free kinase assay.

A further data set has as its target Aurora kinase B (Homo sapiens, UniProt Q96GD4). The experiment in a line: Inhibition of Aurora B kinase (unknown origin) pre-incubated for 30 mins at room temperature before substrate addition and measured 1 hr after substrate addition by cell free kinase assay.
A short description of data set [3]: Stability in human liver microsomes. The note with it: read-out: Stability. In kind it is ADME. On the technique in general: Liver microsomes are vesicles of endoplasmic reticulum, rich in cytochrome P450 enzymes.
Data set [4] is described as follows: Apparent permeability from apical to basolateral side in human Caco2 cells. The note with it: Caco-2. Type of data set: ADME, cell-based. (In general: Passage across Caco-2 layers is used to estimate intestinal permeability.)
Data set [5] in a line: Apparent permeability from basolateral to apical side in human Caco2 cells. Type of data set: ADME, cell-based. The note with it: Caco-2.
Data set [6] has as its system Salmonella typhimurium. The data set is described as follows: Genotoxicity in Salmonella typhimurium TA98 at 5000 µg/plate in presence of liver S9 fraction by Ames test. The note with it: salmonella enterica subsp. enterica serovar typhimurium. In kind it is toxicity, organism-based.
In data set [7] the test system is Salmonella typhimurium. The experiment in a line: Genotoxicity in Salmonella typhimurium TA98 at 5000 µg/plate in absence of liver S9 fraction by Ames test. The note with it: salmonella enterica subsp. enterica serovar typhimurium. In kind it is toxicity, organism-based. (In general: The Ames test uses bacterial strains that need an amino acid and regain growth without it when mutated back.)

For data set [8], the system named is Salmonella typhimurium. The experiment in a line: Genotoxicity in Salmonella typhimurium TA100 at 5000 µg/plate in presence of liver S9 fraction by Ames test. In kind it is toxicity, organism-based. The note with it: salmonella enterica subsp. enterica serovar typhimurium.
Data set [9] has as its system Salmonella typhimurium. The data set is described as follows: Genotoxicity in Salmonella typhimurium TA100 at 5000 µg/plate in absence of liver S9 fraction by Ames test. In kind it is toxicity, organism-based. The note with it: salmonella enterica subsp. enterica serovar typhimurium.
Data set [10] has as its system Salmonella typhimurium. The experiment in a line: Genotoxicity in Salmonella typhimurium TA1535 at 5000 µg/plate in presence of liver S9 fraction by Ames test. Type of data set: toxicity, organism-based. The note with it: salmonella enterica subsp. enterica serovar typhimurium.
Data set [11] has as its system Salmonella typhimurium. The experiment in a line: Genotoxicity in Salmonella typhimurium TA1537 at 5000 µg/plate in presence of liver S9 fraction by Ames test. Type of data set: toxicity, organism-based. The note with it: salmonella enterica subsp. enterica serovar typhimurium.
Data set [12] concerns Escherichia coli. The experiment in a line: Genotoxicity in Escherichia coli WP2 uvrA at 5000 µg/plate in absence of liver S9 fraction by Ames test. Type of data set: toxicity, organism-based.
Data set [13] has as its system Salmonella typhimurium. The experiment in a line: Mutagenicity in Salmonella typhimurium TA100 at 5000 µg/plate in absence of liver S9 fraction by Ames test. Type of data set: toxicity, organism-based. The note with it: salmonella enterica subsp. enterica serovar typhimurium.
The test system of data set [14] is Salmonella typhimurium. The data set is described as follows: Mutagenicity in Salmonella typhimurium TA1535 at 5000 µg/plate in presence of liver S9 fraction by Ames test. In kind it is toxicity, organism-based. The note with it: salmonella enterica subsp. enterica serovar typhimurium.
In data set [15] the test system is Salmonella typhimurium. The experiment in a line: Mutagenicity in Salmonella typhimurium TA1535 at 5000 µg/plate in absence of liver S9 fraction by Ames test. Type of data set: toxicity, organism-based. The note with it: salmonella enterica subsp. enterica serovar typhimurium.
Data set [16] relates to Salmonella typhimurium. The experiment in a line: Mutagenicity in Salmonella typhimurium TA1537 at 5000 µg/plate in presence of liver S9 fraction by Ames test. Type of data set: toxicity, organism-based. The note with it: salmonella enterica subsp. enterica serovar typhimurium.
Data set [17] deals with Escherichia coli. The experiment in a line: Mutagenicity in Escherichia coli WP2 uvrA at 5000 µg/plate in presence of liver S9 fraction by Ames test. In kind it is toxicity, organism-based.
The subject of data set [18] is Salmonella typhimurium. The experiment in a line: Mutagenicity in Salmonella typhimurium TA1537 at 5000 µg/plate in absence of liver S9 fraction by Ames test. Type of data set: toxicity, organism-based. The note with it: salmonella enterica subsp. enterica serovar typhimurium.
For the next data set, the system named is Rattus norvegicus. The data set is described as follows: Volume of distribution at steady state in Sprague-Dawley rat at 10 mg/kg, po. In kind it is ADME, organism-based. The note with it: in vivo.
A short description of data set [19]: Terminal half life in Sprague-Dawley rat at 10 mg/kg, po. In kind it is ADME, organism-based. The note with it: in vivo, read-out: beta t1/2 (converted).
Data set [20] is described as follows: Oral bioavailability in Sprague-Dawley rat at 10 mg/kg. In kind it is ADME, organism-based. The note with it: in vivo.
Data set [21] can be described thus: AUClast in Sprague-Dawley rat at 10 mg/kg. Type of data set: ADME, organism-based. Also noted: dose 10 mg/kg, time 0 - last. The note with it: in vivo.

pIC50: −log10 of the molar value. Bounds are passed on as bounds.

Aurora kinase B, sequence (Q96GD4 whole entry): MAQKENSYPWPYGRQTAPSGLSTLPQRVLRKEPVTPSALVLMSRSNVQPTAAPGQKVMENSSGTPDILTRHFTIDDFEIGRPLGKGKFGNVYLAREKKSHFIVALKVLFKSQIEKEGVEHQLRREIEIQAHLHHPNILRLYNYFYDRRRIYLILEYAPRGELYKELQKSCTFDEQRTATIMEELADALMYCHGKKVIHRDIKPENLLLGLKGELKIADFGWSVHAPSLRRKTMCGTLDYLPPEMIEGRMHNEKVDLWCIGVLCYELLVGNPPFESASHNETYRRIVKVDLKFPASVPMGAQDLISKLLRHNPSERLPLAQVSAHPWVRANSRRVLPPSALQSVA

For the compound `Cc1nn(-c2ccnc(Nc3ccc4c(c3)c(Cl)c(C)n4C)n2)cc1CN1CC(O)C1`, the pIC50 in [1] was 4.27; in [2], 7.11; against Aurora kinase B, 5.77. Besides, the half-life is greater than 1 h in data set [3] and 3.6 h in data set [19]. In addition, in data set [4], the Papp A→B came to 2.7 ×10⁻⁶ cm/s. Further, the Papp B→A in data set [5] was 3.8 ×10⁻⁶ cm/s. The Activity entry with Salmonella typhimurium [6], in the data set with Salmonella typhimurium [7], with Salmonella typhimurium [8], with Salmonella typhimurium [9], in the data set with Salmonella typhimurium [10] and in the data set on Salmonella typhimurium [11] was “Non-toxic” each time. For the same compound, the Activity result in the data set on Escherichia coli [12], in the data set with Salmonella typhimurium [13], in the data set with Salmonella typhimurium [14], in the data set with Salmonella typhimurium [15], with Salmonella typhimurium [16] and in the data set on Escherichia coli [17] was “Non-toxic” throughout. In addition, the Activity entry with Salmonella typhimurium [18] was “Non-toxic”. In the data set with Rattus norvegicus, this compound returned a Vdss of 3.3 L/kg. This compound displayed a bioavailability in data set [20] of 28.4%. The AUC(0-t) in data set [21] is 3230 ng·h/mL.
As for `Cc1nn(-c2ccnc(Nc3ccc4c(c3)c(C)c(C)n4C)n2)cc1CN1CC(O)C1`, the pIC50 in data set [1] was 3.00; in [2], 6.38; against Aurora kinase B, 6.01. In addition, the half-life in data set [3] was greater than 1 h; in data set [19] it was 3.4 h. Besides, in data set [4], the Papp A→B amounted to 6.2 ×10⁻⁶ cm/s. Also, in data set [5], the Papp B→A is 9.9 ×10⁻⁶ cm/s. For the same compound, the Activity result with Salmonella typhimurium [6], in the data set on Salmonella typhimurium [7], in the data set on Salmonella typhimurium [8], with Salmonella typhimurium [9], with Salmonella typhimurium [10] and in the data set with Salmonella typhimurium [11] was “Non-toxic” each time. In addition, the Activity result with Escherichia coli [12], with Salmonella typhimurium [13], in the data set with Salmonella typhimurium [14], with Salmonella typhimurium [15], with Salmonella typhimurium [16] and in the data set with Escherichia coli [17] was “Non-toxic” throughout. Further, the Activity result with Salmonella typhimurium [18] is “Non-toxic”. In the data set with Rattus norvegicus, this compound had a Vdss of 3.7 L/kg. The bioavailability in data set [20] was determined as 61%. In addition, in data set [21], the AUC(0-t) came out at 4000 ng·h/mL.

The pIC50 is the IC50 on a negative log10 scale, so that one unit is a factor of ten. A higher pIC50 goes with a small IC50. Usually Papp A→B stands for the apparent permeability from the apical to the basolateral side of a cell layer. What is called Papp B→A is how fast a substance crosses the layer from the basolateral side. For orientation: bioavailability means the share of a dose that reaches the circulation, judged against a reference dose that is usually intravenous. Higher therefore signals good availability. Usually AUC(0-t) stands for the area under the concentration-time curve up to a stated or last time point. Read a high AUC(0-t) as high exposure.

The values are drawn from ChEMBL document CHEMBL3621069 (Bioorg Med Chem Lett, 2015).
